According to ChEMBL document CHEMBL1153889, “Psammaplin A as a general activator of cell-based signaling assays via HDAC inhibition and studies on some bromotyrosine derivatives” (Bioorg Med Chem, 2009):
Activity calls are given as the source filed them. No cut-off for these calls is given here.

Experiments:
[1] = molecular target: Protein Wnt-3a (Mus musculus) (UniProt P27467); experiment: Activation of mouse Wnt3a signaling expressed in HEK293 STF cells assessed as increase in transcriptional activity after 24 hrs by luciferase reporter gene-based lactate dehydrogenase assay; type: cell-based
HEK293 = experiment: Activation of Neuropeptide S receptor I107 mutant expressed in HEK293 cells assessed as increase in transcriptional activity after 24 hrs by luciferase reporter gene-based lactate dehydrogenase assay; type: cell-based

Chain of Protein Wnt-3a (Mus musculus) (P27467 whole entry): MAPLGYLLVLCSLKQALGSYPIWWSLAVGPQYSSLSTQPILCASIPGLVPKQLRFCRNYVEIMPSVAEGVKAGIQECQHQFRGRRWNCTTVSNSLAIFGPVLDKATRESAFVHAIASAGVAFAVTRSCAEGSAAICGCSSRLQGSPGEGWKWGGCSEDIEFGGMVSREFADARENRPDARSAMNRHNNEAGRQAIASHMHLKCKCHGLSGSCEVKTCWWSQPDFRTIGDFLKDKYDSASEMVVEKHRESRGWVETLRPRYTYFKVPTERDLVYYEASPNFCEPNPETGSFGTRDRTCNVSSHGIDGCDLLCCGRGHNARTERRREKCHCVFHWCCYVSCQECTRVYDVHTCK

Compound	Activity [1]	Activity (HEK293)
O=C(NCCSSCCNC(=O)/C(Cc1ccc(O)c(Br)c1)=N/O)/C(Cc1ccc(O)c(Br)c1)=N/O	Active	Active
Nc1ccccc1NC(=O)c1ccc(CNC(=O)OCc2cccnc2)cc1	Active	
CC(/C=C/C(=O)NO)=C\[C@@H](C)C(=O)c1ccc(N(C)C)cc1	Active	
O=C(CCCCCCC(=O)Nc1ccccc1)NO	Active	
